Paper PMC6272893, “NO-Releasing Enmein-Type Diterpenoid Derivatives with Selective Antiproliferative Activity and Effects on Apoptosis-Related Proteins” (Molecules, 2016)
Read-outs that look alike come from different tables or passages of the source.

Columns and labels:
[1] = system: Bel-7402 cells; test: MTT antiproliferative assay, Bel-7402; format: cell-based, human; settings: Homo sapiens, Bel-7402; MTT, 72 h, mean ± S.D. of three experiments
Protocol: [The source words this procedure for another cell line and reports this cell line under the same test.] (§1) Cytotoxicity assay in vitro was employed by the MTT assay following the methodology described previously, which was performed in flat-bottomed 96-well plates. In short, exponentially growing MGC-803 cells at the log phase were added to each well at a density of 5 × 10^3 per well, then treated with serial dilutions of the compounds in three replicates at various concentrations (0.039–40 µg/mL). After 72 h, 20 µL of MTT solution (5 mg/mL) per well was added to each cultured medium. Then, DMSO was added to each well (150 µL/well). After 10 min at room temperature, the absorbance (OD) was read on a microplate reader at the wavelength of 490 nm (BIO-RAD Instruments Inc. 550, Hercules, CA, USA). In these experiments, taxol was used as the positive reference with the concentration of 10 µg/mL.

[2] = system: K562 cells; test: MTT antiproliferative assay, K562; format: cell-based, human; settings: Homo sapiens, K562; MTT, 72 h, mean ± S.D. of three experiments
Protocol: [The source words this procedure for another cell line and reports this cell line under the same test.] as §1

[3] = system: MGC-803 cells; test: MTT antiproliferative assay, MGC-803; format: cell-based, human; settings: Homo sapiens, MGC-803; MTT, 72 h, mean ± S.D. of three experiments
Protocol: as §1

[4] = system: L-02 normal liver cells; test: MTT antiproliferative assay, L-02; format: cell-based; settings: for IC50: 72 h, read-out: antiproliferative activity IC50, L-02
Protocol: [The source words this procedure for another cell line and reports this cell line under the same test.] as §1

[5] = system: CaEs-17 cells; test: MTT antiproliferative assay, CaEs-17; format: cell-based, human; settings: Homo sapiens, CaEs17; MTT, 72 h, mean ± S.D. of three experiments
Protocol: [The source words this procedure for another cell line and reports this cell line under the same test.] as §1

[6] = MTT, mean ± S.D. of three experiments

Row | SMILES | IC50 [1] [µM] | IC50 [2] [µM] | IC50 [3] [µM] | IC50 [4, 6] [µM] | SI (selectivity index) ([4]; selectivity between tumor and normal liver cells) | IC50 [5] [µM] | IC50 [4] [µM]
1 | O=C(O)CCC(=O)OCCOc1no[n+]([O-])c1S(=O)(=O)c1ccccc1 [Compound 7a] | 22 ± 0.8 | 22.6 ± 2 | 25.4 ± 1.5 | 37.8 ± 1.3 | – | 24.3 ± 0.9 | –
2 | O=C(O)CCCC(=O)OCCOc1no[n+]([O-])c1S(=O)(=O)c1ccccc1 [Compound 7b] | 22.3 ± 1.6 | 24.2 ± 2.5 | 22.2 ± 2.5 | 39.6 ± 1.4 | – | 25.7 ± 1.4 | –
3 | O=C(O)c1ccccc1C(=O)OCCOc1no[n+]([O-])c1S(=O)(=O)c1ccccc1 [Compound 7c] | 19.6 ± 1 | 22.6 ± 1.7 | 24.6 ± 1.4 | 41.3 ± 2.9 | – | 23.8 ± 1 | –
4 | O=C(O)CCC(=O)OCCCOc1no[n+]([O-])c1S(=O)(=O)c1ccccc1 [Compound 7d] | 17.8 ± 1.4 | 17.5 ± 1.4 | 18.5 ± 0.8 | 37.4 ± 0.8 | – | 19.8 ± 1.3 | –
5 | O=C(O)CCCC(=O)OCCCOc1no[n+]([O-])c1S(=O)(=O)c1ccccc1 [Compound 7e] | 18.6 ± 0.8 | 18.5 ± 1.6 | 20 ± 1.1 | 36.3 ± 2.1 | – | 18.7 ± 1 | –
6 | O=C(O)c1ccccc1C(=O)OCCCOc1no[n+]([O-])c1S(=O)(=O)c1ccccc1 [Compound 7f] | 16.7 ± 0.8 | 17.5 ± 1 | 19.3 ± 0.6 | 35.8 ± 1.3 | – | 19.2 ± 0.7 | –
7 | O=C(O)CCC(=O)OCCCCOc1no[n+]([O-])c1S(=O)(=O)c1ccccc1 [Compound 7g] | 22.7 ± 1 | 24 ± 1.4 | 20.6 ± 1.7 | 39.4 ± 2.6 | – | 25.7 ± 0.7 | –
8 | O=C(O)CCCC(=O)OCCCCOc1no[n+]([O-])c1S(=O)(=O)c1ccccc1 [Compound 7h] | 21.3 ± 0.7 | 24.5 ± 1.4 | 23.5 ± 1 | 35.4 ± 1.4 | – | 22.9 ± 1.4 | –
9 | O=C(O)c1ccccc1C(=O)OCCCCOc1no[n+]([O-])c1S(=O)(=O)c1ccccc1 [Compound 7i] | 22.4 ± 1.6 | 23 ± 1.2 | 21.6 ± 1.5 | 37.9 ± 2.8 | – | 24.8 ± 1.5 | –

The next molecules have a lower IC50 [1] than those just listed; values first:

Row | IC50 [1] [µM] | IC50 [2] [µM] | IC50 [3] [µM] | SMILES | IC50 [4, 6] [µM] | SI (selectivity index) ([4]; selectivity between tumor and normal liver cells) | IC50 [5] [µM] | IC50 [4] [µM]
10 | 16 ± 1.1 | 2.64 ± 0.19 | 5.84 ± 0.57 | C=C1C(=O)C23C(=O)OC4CCC(C)(C)C5C(=O)OCC45C2CCC1C3O (centres unmarked) [Compound 9] | – | – | 23.7 ± 1.8 | 26.4 ± 1.3
11 | 7.48 ± 0.32 | 4.76 ± 0.32 | 5.69 ± 0.39 | C=C1C(=O)[C@]23[C@H](O)[C@H]1CC[C@H]2[C@@]12CO[C@]3(O)[C@@H](O)[C@@H]1C(C)(C)CC[C@@H]2O [Compound 1, oridonin, reference compound] | 18.3 ± 0.8 | about 2.4 | 11 ± 1 | –
12 | 1.91 ± 0.09 | 2.86 ± 0.05 | 2.84 ± 1.12 | C=C1C(=O)C23C(=O)OC4CCC(C)(C)C5C(=O)OCC45C2CCC1C3OC(=O)CCC(=O)OCCOc1no[n+]([O-])c1S(=O)(=O)c1ccccc1 (centres unmarked) [Compound 10a] | 24.4 ± 0.8 | – | 5.68 ± 0.53 | –
13 | 1.89 ± 0.09 | 0.41 ± 0.02 | 4.65 ± 0.29 | CC(=O)O[C@H]1C(=O)[C@@]2(C)[C@H]([C@H](OC(=O)c3ccccc3)[C@]3(O)C[C@H](OC(=O)[C@H](O)[C@@H](NC(=O)c4ccccc4)c4ccccc4)C(C)=C1C3(C)C)[C@]1(OC(C)=O)CO[C@@H]1C[C@@H]2O [Taxol, reference compound] | 3.73 ± 0.17 | – | 0.43 ± 0.03 | –
14 | 1.85 ± 0.11 | 2.82 ± 0.22 | 2.8 ± 0.09 | C=C1C(=O)C23C(=O)OC4CCC(C)(C)C5C(=O)OCC45C2CCC1C3OC(=O)CCC(=O)OCCCCOc1no[n+]([O-])c1S(=O)(=O)c1ccccc1 (centres unmarked) [Compound 10g] | 33.9 ± 1.5 | – | 5.52 ± 0.08 | –
15 | 1.75 ± 0.12 | 2.9 ± 0.17 | 2.67 ± 0.24 | C=C1C(=O)C23C(=O)OC4CCC(C)(C)C5C(=O)OCC45C2CCC1C3OC(=O)CCCC(=O)OCCOc1no[n+]([O-])c1S(=O)(=O)c1ccccc1 (centres unmarked) [Compound 10b] | 22.1 ± 1.3 | – | 5.56 ± 0.06 | –
16 | 1.65 ± 0.12 | 2.78 ± 0.2 | 2.65 ± 0.16 | C=C1C(=O)C23C(=O)OC4CCC(C)(C)C5C(=O)OCC45C2CCC1C3OC(=O)CCCC(=O)OCCCCOc1no[n+]([O-])c1S(=O)(=O)c1ccccc1 (centres unmarked) [Compound 10h] | 29.8 ± 0.9 | – | 5.48 ± 0.21 | –
17 | 1.17 ± 0.02 | 2.04 ± 0.1 | 2.03 ± 0.15 | C=C1C(=O)C23C(=O)OC4CCC(C)(C)C5C(=O)OCC45C2CCC1C3OC(=O)CCC(=O)OCCCOc1no[n+]([O-])c1S(=O)(=O)c1ccccc1 (centres unmarked) [Compound 10d] | 27.4 ± 1 | – | 4.84 ± 0.47 | –
18 | 1.12 ± 0.09 | 2.02 ± 0.17 | 1.91 ± 0.09 | C=C1C(=O)C23C(=O)OC4CCC(C)(C)C5C(=O)OCC45C2CCC1C3OC(=O)CCCC(=O)OCCCOc1no[n+]([O-])c1S(=O)(=O)c1ccccc1 (centres unmarked) [Compound 10e] | 29.3 ± 0.9 | – | 4.04 ± 0.23 | –
19 | 1.09 ± 0.09 | 2.06 ± 0.16 | 1.64 ± 0.12 | C=C1C(=O)C23C(=O)OC4CCC(C)(C)C5C(=O)OCC45C2CCC1C3OC(=O)c1ccccc1C(=O)OCCCCOc1no[n+]([O-])c1S(=O)(=O)c1ccccc1 (centres unmarked) [Compound 10i] | 27.7 ± 1.3 | – | 4.13 ± 0.29 | –
20 | 1.01 ± 0.04 | 1.97 ± 0.18 | 1.6 ± 0.15 | C=C1C(=O)C23C(=O)OC4CCC(C)(C)C5C(=O)OCC45C2CCC1C3OC(=O)c1ccccc1C(=O)OCCOc1no[n+]([O-])c1S(=O)(=O)c1ccccc1 (centres unmarked) [Compound 10c] | 31.2 ± 1.2 | – | 4.02 ± 0.14 | –
